According to PubChem BioAssay (NCI):
Values joined by “and” are separate entries in the source; they are usually repeats but may differ in a detail not shown here. Equal entries are not always repeated.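 Test compounds were applied to cells in 96-well plates for 48 hours at 5 doses. GI50 marks 50% less growth. TGI: concentration producing complete growth inhibition.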

What was measured:
Experiment in all cases: DTP human tumour cell line panel, 48 h
ACHN renal = tested on: ACHN renal
UACC-62 melanoma = tested on: UACC-62 melanoma
PC-3 prostate = tested on: PC-3 prostate
SF-268 CNS = tested on: SF-268 CNS
MOLT-4 leukemia = tested on: MOLT-4 leukemia
RPMI-8226 leukemia = tested on: RPMI-8226 leukemia
SNB-75 CNS = tested on: SNB-75 CNS
NCI-H226 lung = tested on: NCI-H226 lung
K-562 leukemia = tested on: K-562 leukemia
OVCAR-3 ovarian = tested on: OVCAR-3 ovarian

Row | Structure (SMILES) | GI50 (ACHN renal) | TGI (ACHN renal) | GI50 (UACC-62 melanoma) | TGI (UACC-62 melanoma) | GI50 (PC-3 prostate) | TGI (PC-3 prostate) | GI50 (SF-268 CNS) | TGI (SF-268 CNS) | GI50 (MOLT-4 leukemia) | TGI (MOLT-4 leukemia) | GI50 (RPMI-8226 leukemia) | TGI (RPMI-8226 leukemia) | TGI (SNB-75 CNS) | GI50 (NCI-H226 lung) | TGI (NCI-H226 lung) | GI50 (K-562 leukemia) | TGI (K-562 leukemia) | GI50 (OVCAR-3 ovarian) | TGI (OVCAR-3 ovarian) | GI50 (SNB-75 CNS)
1 | CN(Cc1cnc2nc(N)nc(N)c2n1)c1ccc(C(=O)NC(CCC(=O)O)C(=O)O)cc1Br (configuration not stated) | < 0.01 µM | > 100 µM | < 0.01 µM | 7.35 µM | < 0.01 µM | > 100 µM | < 0.01 µM | 13.1 µM | < 0.01 µM | > 46.3 µM | < 0.01 µM | > 100 µM | 5.06 µM | < 0.01 µM | > 96.4 µM | < 0.01 µM | > 100 µM | < 0.01 µM | 4.43 µM | 
2 | COc1cc(-c2nn(-c3cccc(NC(=O)c4ccc(Cl)c(C(F)(F)F)c4)c3)cc2-c2ccncc2)ccc1Cl | 1.91 µM | > 32.5 µM | 1.6 µM | > 32.5 µM | 0.798 µM | > 16.3 µM | 3.24 µM | > 32.5 µM | 5.24 µM | > 32.5 µM | 1.08 µM | > 21.8 µM | 13.2 µM | 7.83 µM | > 32.5 µM | 1.21 µM | > 32.5 µM | 1.43 µM | 15.2 µM | 1.07 µM
3 | COc1ccc(N=N/C(C(=O)C(F)(F)F)=C(\O)c2ccc(Cl)cc2)cc1 | 6.53 µM | > 100 µM | 3.91 µM | > 100 µM | 10.4 µM | > 100 µM | 12 µM | > 100 µM | 5.09 µM | 53 µM | 5.96 µM | 47.3 µM | 37.6 µM | 21.2 µM | > 100 µM | 3.47 µM | > 100 µM | 7.21 µM | 35.4 µM | 10.3 µM
4 | CC1=C(Nc2ccc(N3CCN(C)CC3)cc2)C(=O)c2cncnc2C1=O | 2.31 µM | 5.88 µM | 2.38 µM | 5.64 µM | 3.05 µM | 11.9 µM | 16 µM | 50.4 µM | 2.01 µM | 6.39 µM | 3.26 µM | 11.7 µM | 30 µM | 15.2 µM | 35.7 µM | 2.78 µM | > 100 µM | 1.97 µM | 4.28 µM | 14.7 µM
5 | COc1cc2cc(Oc3ccc(NC(=O)Nc4ccc(Cl)c(Cl)c4)cc3)c(C)nc2cc1OC | 3 µM | 12.1 µM | 3.33 µM | 19.2 µM | 1.53 µM | 5.13 µM | 8.23 µM | > 100 µM | 3.02 µM | 22.8 µM | 1.62 µM | 5.73 µM | 8.28 µM | 3.12 µM | 8.68 µM | 3.33 µM | > 100 µM | 2.34 µM | 6.19 µM | 2.33 µM
6 | Cn1cc(C2=C(c3cn(CCCCCSC(=N)N)c4ccccc34)C(=O)NC2=O)c2ccccc21 | 3.54 µM | 6.94 µM | 3.87 µM | 7.25 µM | 2.68 µM | 6.02 µM | 3.86 µM | 7.8 µM | 2.06 µM | 6.25 µM | 4.13 µM | 9.61 µM | 4.36 µM | 4.09 µM | 9.96 µM | 1.49 µM | 5.31 µM | 3.22 µM | 6.55 µM | 1.01 µM
7 | CC[C@H](C)[C@H](NC(=O)CN(C)C)C(=O)N(C)[C@H](C[C@@H](OC(C)=O)c1nc(C(=O)NC23CC(C(=O)OC)(C2)C3)cs1)C(C)C | 2.28 µM | > 25 µM | 0.237 µM | > 25 µM | 0.804 µM | > 25 µM | 0.831 µM | > 25 µM | 0.119 µM | > 25 µM | 0.0845 µM | > 25 µM | > 25 µM | > 25 µM | > 25 µM | 0.0733 µM | > 25 µM | 0.0804 µM | > 7.19 µM | 0.0883 µM
8 | COc1ccc(N(C)c2nc(N)nc3sc4c(c23)CCCC4)cc1 | < 0.01 µM | 14.6 µM | < 0.01 µM | 15.8 µM | < 0.01 µM | 15.6 µM | < 0.0159 µM | 14.5 µM | < 0.0125 µM | 28 µM | < 0.01 µM | 15.6 µM | 13.2 µM | 0.616 µM | 22.3 µM | < 0.01 µM | > 42.2 µM | 0.025 µM | 14.2 µM | < 0.01 µM
9 | Cc1cc(Cl)nc(N(CCCNc2ccnc3cc(Cl)ccc23)Cc2ccco2)n1 | 3 µM | 12 µM | 2.32 µM | 6.8 µM | 1.87 µM | 6 µM | 3.83 µM | 31.1 µM | 1.93 µM | 6.46 µM | 1.04 µM | 3.19 µM | 11.2 µM | 1.3 µM | 6.91 µM | 1.4 µM | 5.86 µM | 2.48 µM | 10.3 µM | 2.13 µM
10 | COc1ccc(/C(C#N)=C2C=C/C(=N/O)c3ccccc3\2)cc1 | 0.318 µM | 15.4 µM | 0.48 µM | 7.47 µM | 0.322 µM | 15.7 µM | 0.481 µM | 15 µM | 0.357 µM | 12.6 µM | 0.371 µM | 9.76 µM | 11.5 µM | 3.71 µM | 17 µM | 0.105 µM | 14.3 µM | 0.314 µM | 2.79 µM | 0.259 µM
11 | CN1CSC(=S)N(Cc2ccccc2)C1 | 14.1 µM | 27.1 µM | 13.4 µM | 36 µM | 42.4 µM | > 100 µM | 14.8 µM | 36.1 µM | 11.2 µM | > 100 µM | 5.54 µM | 79.7 µM | 65.9 µM | 70.5 µM | > 100 µM | 2.81 µM | > 100 µM | 3.96 µM | 15 µM | 5.81 µM
12 | COC(=O)C=Cc1ccc2nncnc2c1 (mixture of isomers) |  | > 100 µM |  | 32.2 µM |  | > 100 µM |  | > 100 µM |  | > 100 µM |  | > 100 µM | 55.1 µM |  | > 100 µM |  | > 100 µM |  | > 100 µM | 
13 | CCn1c(-c2nonc2N)nc2cncc(C(=O)N3CC[C@H](N)C3)c21 | > 25 µM | > 25 µM | > 25 µM | > 25 µM | > 25 µM | > 25 µM | > 19.5 µM | > 25 µM | > 25 µM | > 25 µM | > 25 µM | > 25 µM | > 7.84 µM | 0.966 µM | > 25 µM | > 25 µM | > 25 µM | > 25 µM | > 25 µM | 0.319 µM
14 | O=C(Nc1nc2ccccc2s1)Nc1ccc([N+](=O)[O-])cc1Cl | 6.53 µM | 18 µM | 3.1 µM | 8.94 µM | 4.26 µM | > 28.8 µM | 4.49 µM | 18.6 µM | 5.92 µM | > 47.4 µM | 2.19 µM | > 21 µM | 5.36 µM | 5.58 µM | 13.1 µM | 3.48 µM | > 100 µM | 3.05 µM | 8.17 µM | 1.87 µM
15 | CCc1nc(N)nc(N)c1-c1ccc(N2CCNCC2)cc1 |  | > 100 µM |  | > 100 µM |  | > 100 µM |  | > 100 µM |  | > 91.8 µM |  | > 90.5 µM | > 100 µM |  | > 100 µM |  | > 87.2 µM |  | > 100 µM | 
16 | CSc1ccc2c(c1)C(N1CCN(C)CC1)Cc1ccccc1S2 (configuration not stated) | 1.96 µM | 12.2 µM and 3.95 µM | 1.8 µM | 4.2 µM and 3.3 µM | 1.89 µM | 17.6 µM and 6.51 µM | 2.1 µM | 14.7 µM and 5.55 µM | 1.89 µM | 8.67 µM and 3.87 µM |  | 4.12 µM and 4.58 µM | 3.15 µM and 3.87 µM | 1.8 µM | 24.9 µM and 3.94 µM |  | 4.5 µM | 2.67 µM | 28 µM and 7.22 µM | 1.49 µM
17 | Cn1ncc(Cl)c1-c1cc(C(=O)N[C@H](CN)Cc2ccc(F)c(F)c2)oc1Cl | 2.23 µM and 1.86 µM | 14.2 µM and > 10 µM | 0.625 µM and 0.494 µM | 3.04 µM and 2.65 µM | 0.263 µM and 0.133 µM | 9.07 µM and > 6.73 µM | 3.36 µM and 2.08 µM | 17.1 µM and > 10 µM | 0.0931 µM and 0.1 µM | 2.25 µM and > 6.73 µM | 2.05 µM and 2.62 µM | 7.96 µM and > 7.98 µM | 1.4 µM and 0.846 µM | 5.91 µM and 2.29 µM | 24.7 µM and > 10 µM | 2.34 µM and 3.01 µM | 7.35 µM and > 8.68 µM | 1.97 µM and 1.6 µM | 15 µM and > 10 µM | 0.0508 µM and 0.027 µM
18 | c1ccc2c3c([nH]c2c1)C(c1ccc(C2NCCc4c2[nH]c2ccccc42)cc1)NCC3 (configuration not stated) | 0.713 µM | 2 µM | 0.749 µM | 2.13 µM | 1.27 µM | 2.69 µM | 1.12 µM | 2.57 µM | 0.378 µM | 1.53 µM | 0.34 µM | 1.09 µM | 2.07 µM | 1.96 µM | 4.23 µM | 0.244 µM | 0.488 µM | 1.24 µM | 2.6 µM | 0.691 µM
